Read-outs that look alike come from different tables or passages of the source.
Assays:
[1] = system: Key Grass and Sedge Weeds as well as Grass Crops; test: Post-emergent Test II herbicidal activity (Table 6); type: in vivo; details: post-emergence, 336 h; for pest or weed control at 70 g/ha: application rate 70 g ai/ha; for pest or weed control at 140 g/ha: application rate 140 g ai/ha
How it was run: (§1)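 Spray rates: a highest rate plus ½×, ¼×, ⅛×, 1/16×, all delivered at 187 L/ha to plants at the first–second true leaf stage. Readout is a visual percent injury score at 14 d, where 100 means complete kill.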

[2] = system: Key Broadleaf Weed and Crop Species; test: Post-emergent Test II herbicidal activity (Table 5); type: in vivo; details: post-emergence, 336 h, post-emergent, 14 days after application; for pest or weed control at 70 g/ha: 70 g ai/ha; for pest or weed control at 140 g/ha: 140 g ai/ha
How it was run: as §1

[3] = Triticum aestivum, TRZSS (wheat), read-out: Visual Growth Reduction (%) 14 Days After Application, TRZSS
[4] = CYPES: yellow nutsedge (Cyperus esculentus), read-out: Visual Growth Reduction (%) 14 Days After Application, CYPES
[5] = DIGSA: crabgrass (Digitaria sanguinalis), read-out: Visual Growth Reduction (%) 14 Days After Application, DIGSA
[6] = ECHCG: barnyardgrass (Echinochloa crus-galli), read-out: Visual Growth Reduction (%) 14 Days After Application, ECHCG
[7] = ORYSA: rice (Oryza sativa), read-out: Visual Growth Reduction (%) 14 Days After Application, ORYSA
[8] = SETFA: giant foxtail (Setaria faberi), read-out: Visual Growth Reduction (%) 14 Days After Application, SETFA
[9] = SORVU: grain sorghum (Sorghum vulgare), read-out: Visual Growth Reduction (%) 14 Days After Application, SORVU
[10] = ZEAMX: maize, corn (Zea mays), read-out: Visual Growth Reduction (%) 14 Days After Application, ZEAMX
[11] = ABUTH: velvetleaf (Abutilon theophrasti), read-out: Visual Growth Reduction (%) 14 Days After Application ABUTH
[12] = AMARE: redroot pigweed (Amaranthus retroflexus), read-out: Visual Growth Reduction (%) 14 Days After Application AMARE
[13] = BRSNN: oilseed-rape, canola (Brassica napus), read-out: Visual Growth Reduction (%) 14 Days After Application BRSNN
[14] = CHEAL: lambsquarters (Chenopodium album), read-out: Visual Growth Reduction (%) 14 Days After Application CHEAL
[15] = EPHHL: wild poinsettia (Euphorbia heterophylla), read-out: Visual Growth Reduction (%) 14 Days After Application EPHHL
[16] = HELAN: sunflower (Helianthus annuus), read-out: Visual Growth Reduction (%) 14 Days After Application HELAN
[17] = VIOTR: wild pansy (Viola tricolor), read-out: Visual Growth Reduction (%) 14 Days After Application VIOTR

Structure (SMILES)	pest or weed control at 70 g/ha [1, 3]	pest or weed control at 140 g/ha [1, 3]	pest or weed control at 70 g/ha [1, 4]	pest or weed control at 140 g/ha [1, 4]	pest or weed control at 70 g/ha [1, 5]	pest or weed control at 140 g/ha [1, 5]	pest or weed control at 70 g/ha [1, 6]	pest or weed control at 140 g/ha [1, 6]	pest or weed control at 70 g/ha [1, 7]	pest or weed control at 140 g/ha [1, 7]	pest or weed control at 70 g/ha [1, 8]	pest or weed control at 140 g/ha [1, 8]	pest or weed control at 70 g/ha [1, 9]	pest or weed control at 140 g/ha [1, 9]	pest or weed control at 70 g/ha [1, 10]	pest or weed control at 140 g/ha [1, 10]	pest or weed control at 70 g/ha [2, 11]	pest or weed control at 140 g/ha [2, 11]	pest or weed control at 70 g/ha [2, 12]	pest or weed control at 140 g/ha [2, 12]	also measured
COC(=O)c1nc(-c2ccc(OC(F)F)cc2)cc(N)c1Cl [Compound 23]	0 to 29%	0 to 29%	45 to 59%	75 to 84%	75 to 84%	75 to 84%	85 to 94%	95 to 100%	0 to 29%	0 to 29%	0 to 29%	45 to 59%	85 to 94%	95 to 100%	0 to 29%	0 to 29%	95 to 100%	95 to 100%	95 to 100%	95 to 100%	pest or weed control at 70 g/ha [2, 13]: 0 to 29%; pest or weed control at 140 g/ha [2, 13]: 0 to 29%; pest or weed control at 70 g/ha [2, 14]: 85 to 94%; pest or weed control at 140 g/ha [2, 14]: 95 to 100%; pest or weed control at 70 g/ha [2, 15]: 95 to 100%; pest or weed control at 140 g/ha [2, 15]: 95 to 100%; pest or weed control at 70 g/ha [2, 16]: 0 to 29%; pest or weed control at 140 g/ha [2, 16]: 85 to 94%; pest or weed control at 70 g/ha [2, 17]: 0 to 29%; pest or weed control at 140 g/ha [2, 17]: 0 to 29%
COC(=O)c1nc(-c2ccc(I)c(F)c2)nc(N)c1OC [Compound 27, Methyl 6-amino-2-(3-fluoro-4-iodophenyl)-5-methoxypyrimidine-4-carboxylate]	45 to 59%	45 to 59%	0 to 29%	95 to 100%	0 to 29%	0 to 29%	0 to 29%	0 to 29%	0 to 29%	0 to 29%	0 to 29%	0 to 29%	0 to 29%	30 to 44%	0 to 29%	0 to 29%	60 to 74%	75 to 84%	60 to 74%	75 to 84%	pest or weed control at 70 g/ha [2, 13]: 60 to 74%; pest or weed control at 140 g/ha [2, 13]: 60 to 74%; pest or weed control at 70 g/ha [2, 14]: 85 to 94%; pest or weed control at 140 g/ha [2, 14]: 85 to 94%; pest or weed control at 70 g/ha [2, 15]: 95 to 100%; pest or weed control at 140 g/ha [2, 15]: 95 to 100%; pest or weed control at 70 g/ha [2, 16]: 85 to 94%; pest or weed control at 140 g/ha [2, 16]: 85 to 94%; pest or weed control at 70 g/ha [2, 17]: 95 to 100%; pest or weed control at 140 g/ha [2, 17]: 95 to 100%
C#Cc1ccc(-c2nc(C(=O)OC)c(Cl)c(N)c2Cl)cc1 [Compound 34]	60 to 74%	60 to 74%	60 to 74%	60 to 74%	0 to 29%	45 to 59%	0 to 29%	0 to 29%	0 to 29%	0 to 29%	75 to 84%	85 to 94%	30 to 44%	45 to 59%	60 to 74%	60 to 74%	95 to 100%	95 to 100%	95 to 100%	95 to 100%	pest or weed control at 70 g/ha [2, 13]: 85 to 94%; pest or weed control at 140 g/ha [2, 13]: 95 to 100%; pest or weed control at 70 g/ha [2, 14]: 95 to 100%; pest or weed control at 140 g/ha [2, 14]: 95 to 100%; pest or weed control at 70 g/ha [2, 15]: 75 to 84%; pest or weed control at 140 g/ha [2, 15]: 85 to 94%; pest or weed control at 70 g/ha [2, 16]: 95 to 100%; pest or weed control at 140 g/ha [2, 16]: 95 to 100%; pest or weed control at 70 g/ha [2, 17]: 0 to 29%; pest or weed control at 140 g/ha [2, 17]: 0 to 29%
